Test results taken from the supplement of paper PMC11061612.

Key:
Assay in all cases: Bliss excess, mean over the matrix (fraction); higher = more synergy
[1] = system: NCI-H522 (Lung Adenocarcinoma)
Outline: (§1)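 Cell lines in DMEM/F12 or RPMI with 10% FBS were plated in 1536-well plates, held 24 hours at 37°C, 5% CO2, then given two-drug dose matrices for 72 hours (DMSO typically 0.2%). Viability was read by CellTiter-Glo 2.0 luminescence and scaled as inhibition from 0 (vehicle wells) to 1 (blank wells). Combination Emax is the second-highest inhibition in the matrix; Bliss excess is observed combination effect minus expected EA + EB − EA·EB, EA and EB being single-agent effects.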

[2] = system: SKN (Other Solid Carcinomas)
Outline: as §1

[3] = system: NCI-H1355 (Lung Adenocarcinoma)
Outline: as §1

[4] = system: Mo-T (Other Blood Carcinomas)
Outline: as §1

[5] = system: KMRC-1 (Kidney Carcinoma)
Outline: as §1

[6] = system: Ca-Ski (Cervical Carcinoma)
Outline: as §1

[7] = system: EFO-21 (Ovarian Carcinoma)
Outline: as §1

[8] = system: SW872 (Other Solid Carcinomas)
Outline: as §1

[9] = system: HAL-01 (B-Lymphoblastic Leukemia)
Outline: as §1

[10] = system: MDA-MB-453 (Breast Carcinoma)
Outline: as §1

[11] = system: ME-180 (Cervical Carcinoma)
Outline: as §1

SK-N-AS (Neuroblastoma) = system: SK-N-AS (Neuroblastoma)
Outline: as §1

[12] = system: A4-Fuk (B-Lymphoblastic Leukemia)
Outline: as §1

[13] = system: MOG-G-UVW (Low Grade Glioma)
Outline: as §1

[14] = system: COLO-668 (Small Cell Lung Carcinoma)
Outline: as §1

[15] = system: MOLT-4 (T-Lymphoblastic Leukemia)
Outline: as §1

[16] = system: NCI-H1993 (Lung Adenocarcinoma)
Outline: as §1

[17] = system: ML-2 (Acute Myeloid Leukemia)
Outline: as §1

[18] = system: OE33 (Esophageal Adenocarcinoma)
Outline: as §1

[19] = system: SW982 (Other Solid Carcinomas)
Outline: as §1

Compound	Bliss excess [1]	Bliss excess [2]	Bliss excess [3]	Bliss excess [4]	Bliss excess [5]	Bliss excess [6]	Bliss excess [7]	Bliss excess [8]	Bliss excess [9]	Bliss excess [10]	Bliss excess [11]	Bliss excess (SK-N-AS (Neuroblastoma))	Bliss excess [12]	Bliss excess [13]	Bliss excess [14]	Bliss excess [15]	Bliss excess [16]	Bliss excess [17]	Bliss excess [18]	Bliss excess [19]
CN(CCO)CC[C@H](CSc1ccccc1)Nc1ccc(S(=O)(=O)NC(=O)c2ccc(N3CCC([C@@H](O)c4ccccc4-c4ccc(Cl)cc4)CC3)cc2)cc1S(=O)(=O)C(F)(F)F [AZD4320] + C1CN(CCC1(C(=O)N[C@@H](CCO)C2=CC=C(C=C2)Cl)N)C3=NC=NC4=C3C=CN4 [Capivasertib] (first compound max 1 µM, 7x7, partner max 3 µM)	-0.034	-0.0279	-0.0648	-0.0137	0.0094	0.0249	-0.0827	-0.0237	0.0022	-0.0534	-0.0238	-0.0397	-0.0013	-0.0318	0.034	0.0173	-0.0592	-0.0659	-0.0575	-0.0426
CN(CCO)CC[C@H](CSc1ccccc1)Nc1ccc(S(=O)(=O)NC(=O)c2ccc(N3CCC([C@@H](O)c4ccccc4-c4ccc(Cl)cc4)CC3)cc2)cc1S(=O)(=O)C(F)(F)F [AZD4320] + CC(=O)O[C@H]1C(=O)[C@@]2(C)[C@H]([C@H](OC(=O)c3ccccc3)[C@]3(O)C[C@H](OC(=O)[C@H](O)[C@@H](NC(=O)c4ccccc4)c4ccccc4)C(C)=C1C3(C)C)[C@]1(OC(C)=O)CO[C@@H]1C[C@@H]2O [Paclitaxel] (first compound max 1 µM, 7x7, partner max 3 µM)	0.0246	0.13	0.0513	0.163	0.0095	0.114	0.0978	-0.0047	0.0634	0.249	0.139	0.0584	-0.0556	-0.0104	0.125	0.0099	0.0851	-0.0009	0.0836	0.0272
CN(CCO)CC[C@H](CSc1ccccc1)Nc1ccc(S(=O)(=O)NC(=O)c2ccc(N3CCC([C@@H](O)c4ccccc4-c4ccc(Cl)cc4)CC3)cc2)cc1S(=O)(=O)C(F)(F)F [AZD4320] + CCN(CCO)CCCOc1ccc2c(Nc3cc(CC(=O)Nc4cccc(F)c4)[nH]n3)ncnc2c1 [AZD2811] (first compound max 1 µM, 7x7, partner max 1 µM)	-0.0471	0.0383	-0.0133	-0.003	-0.0359	0.119	-0.0616	-0.0215	-0.0085	0.0154	0.0343	-0.0041	0.0624	0.03	0.0302	0.0322	-0.0043	0.0557	-0.0398	0.0447
CN(CCO)CC[C@H](CSc1ccccc1)Nc1ccc(S(=O)(=O)NC(=O)c2ccc(N3CCC([C@@H](O)c4ccccc4-c4ccc(Cl)cc4)CC3)cc2)cc1S(=O)(=O)C(F)(F)F [AZD4320] + C[C@@H]1COCCN1C2=NC(=NC(=C2)C3(CC3)[S@](=N)(=O)C)C4=C5C=CNC5=NC=C4 [AZD6738] (first compound max 1 µM, 7x7, partner max 10 µM)	-0.0555	-0.0394	-0.0273	0.0358	-0.0358	-0.006	-0.0312	-0.039	0.0405	-0.0453	0.0005	-0.0421	-0.0169	-0.0396	0.0325	-0.0084	-0.0073	0.0597	-0.0295	-0.0374
CN(CCO)CC[C@H](CSc1ccccc1)Nc1ccc(S(=O)(=O)NC(=O)c2ccc(N3CCC([C@@H](O)c4ccccc4-c4ccc(Cl)cc4)CC3)cc2)cc1S(=O)(=O)C(F)(F)F [AZD4320] + C[C@@H](Nc1cc(F)cc(F)c1)c1cc(C(=O)N(C)C)cc2c(=O)cc(N3CCOCC3)oc12 [AZD8186] (first compound max 1 µM, 7x7, partner max 3 µM)	-0.0481	0.0522	0.0082	0.0075	-0.0007	0.0605	0.0323	0.0462	0.0337	0.02	-0.0137	0.0214	0.0025	-0.086	0.0083	-0.0129	0.0156	0.0182	-0.0082	0.0078
CN(CCO)CC[C@H](CSc1ccccc1)Nc1ccc(S(=O)(=O)NC(=O)c2ccc(N3CCC([C@@H](O)c4ccccc4-c4ccc(Cl)cc4)CC3)cc2)cc1S(=O)(=O)C(F)(F)F [AZD4320] + Cc1cc2ncnn2cc1Nc1ncc2c(n1)n(C1CCOCC1)c(=O)n2C [AZD7648] (first compound max 1 µM, 7x7, partner max 10 µM)	-0.0351	-0.0249	-0.052	-0.0057	-0.0618	-0.0243	-0.0461	-0.0262	0.0071	-0.0409	-0.007	-0.0399	-0.0211	-0.0412	-0.0431	0.0422	-0.0205	-0.0141	-0.0489	0.0065
CN(CCO)CC[C@H](CSc1ccccc1)Nc1ccc(S(=O)(=O)NC(=O)c2ccc(N3CCC([C@@H](O)c4ccccc4-c4ccc(Cl)cc4)CC3)cc2)cc1S(=O)(=O)C(F)(F)F [AZD4320] + Cn1cnc2c(F)c(Nc3ccc(Br)cc3Cl)c(C(=O)NOCCO)cc21 [Selumetinib] (first compound max 1 µM, 7x7, partner max 3 µM)	-0.0181	-0.0209	0.0529	0.0434	0.0167	0.0763	-0.0084	0.0556	-0.0053	-0.0218	0.0771	-0.0204	0.073	-0.0034	0.114	0.0365	-0.0307	0.0723	0.0249	-0.0042
CN(CCO)CC[C@H](CSc1ccccc1)Nc1ccc(S(=O)(=O)NC(=O)c2ccc(N3CCC([C@@H](O)c4ccccc4-c4ccc(Cl)cc4)CC3)cc2)cc1S(=O)(=O)C(F)(F)F [AZD4320] + Nc1ccn([C@@H]2O[C@H](CO)[C@@H](O)C2(F)F)c(=O)n1 [Gemcitabine] (first compound max 1 µM, 7x7, partner max 0.3 µM)	-0.0645	0.0198	-0.0349	0.114	0.0287	0.0469	0.0353	0.0199	0.0448	0.0093	-0.0249	0.0011	-0.0912	-0.0147	0.0417	-0.0209	-0.0164	0.0042	-0.0527	0.0339
Cc1c2c(nn1C)CSCc1cc(n(C)n1)CSc1cc(c3ccccc3c1)OCCCc1c(C(=O)O)n(C)c3c-2c(Cl)ccc13 [AZD5991] + Cn1cnc2c(F)c(Nc3ccc(Br)cc3Cl)c(C(=O)NOCCO)cc21 [Selumetinib] (first compound max 1 µM, 7x7, partner max 3 µM)	-0.0194	-0.0276	-0.0258	-0.0167	-0.0396	0.0502	-0.0248	-0.003	0.062	0.0055	-0.0192	-0.0277		-0.0869	0.106	0.0167	0.0043	0.0659		0.0248
Cc1cc2ncnn2cc1Nc1ncc2c(n1)n(C1CCOCC1)c(=O)n2C [AZD7648] + C=CCn1c(=O)c2cnc(Nc3ccc(N4CCN(C)CC4)cc3)nc2n1-c1cccc(C(C)(C)O)n1 [AZD1775] (first compound max 10 µM, partner max 1 µM)	0.0181	-0.0103	-0.0276	-0.14	0.0051	-0.0255	0.0175	0.0554	0.183	-0.0223	-0.0378	0.0212	-0.0655	-0.0301	-0.0151	0.0141	-0.0167	-0.0199	0.0062	-0.0111
Cc1cc2ncnn2cc1Nc1ncc2c(n1)n(C1CCOCC1)c(=O)n2C [AZD7648] + CCN(CCO)CCCOc1ccc2c(Nc3cc(CC(=O)Nc4cccc(F)c4)[nH]n3)ncnc2c1 [AZD2811] (first compound max 10 µM, 7x7, partner max 1 µM)	0.0156	-0.033	-0.0401	-0.0582	0.0039	0.0387	-0.0061	0.0723	0.0199	-0.0013	-0.0485	-0.0011	0.0759	-0.027	0.0084	0.009	0.0171	-0.116	-0.0315	-0.0569
N#Cc1cnc(Nc2cc(NC[C@H]3CNCCO3)c(C(F)(F)F)cn2)cn1 [SRA737] + C=CCn1c(=O)c2cnc(Nc3ccc(N4CCN(C)CC4)cc3)nc2n1-c1cccc(C(C)(C)O)n1 [AZD1775] (first compound max 10 µM, partner max 1 µM)	-0.0295	-0.0293	-0.0046	-0.0097	-0.0048	0.117		0.0756	0.0645	0.0927	-0.0149	0.0512	0.0277	0.0652	0.151	0.12	0.194	0.0592	0.0063	0.0316
N#Cc1cnc(Nc2cc(NC[C@H]3CNCCO3)c(C(F)(F)F)cn2)cn1 [SRA737] + Nc1ccn([C@@H]2O[C@H](CO)[C@@H](O)C2(F)F)c(=O)n1 [Gemcitabine] (first compound max 10 µM, 7x7, partner max 0.3 µM)	0.102	-0.0073	0.0299	-0.0134	0.042	0.0666	0.0169	0.0236	0.0046	-0.0075		-0.0283	0.0278	0.0876	-0.0355	0.0522	0.0158	0.061	0.0039	0.0238
